What was measured:
[1] = tested on: βTC6 cells; experiment: Insulin secretion from βTC6 cell line (insulin Sandwich ELISA); assay type: cell-based, murine; details: for glucose-stimulated insulin release compared to basal controls (summary statement) / insulin secretion compared to the basal control / insulin secretion compared to basal insulin secretion and to insulin secretion in the presence of glucose: βTC6 cells; for insulin secretion compared to the basal control: absence of glucose; for insulin secretion compared to the basal control / insulin secretion compared to basal insulin secretion and to insulin secretion in the presence of glucose: 10^−15 M, 10^−12 M and 10^−9 M; for insulin secretion compared to basal insulin secretion and to insulin secretion in the presence of glucose: presence of 2.8 mM glucose
Experimental: Secretion of insulin by βTC6 cells was measured using the high range insulin Sandwich ELISA kit.

[2] = tested on: Streptozotocin-injected (STZ) diabetic rats; experiment: Fasting blood glucose level of STZ diabetic rats; assay type: in vivo, rat; details: for reduction in blood glucose level compared to control diabetic groups: 6 and 8 hours after treatment, n=6
Excerpt: These symptoms indicate the development of diabetes characterized by chronic and persistently elevated plasma glucose level. STZ induces diabetes by selectively destroying the insulin producing pancreatic endocrine cells. Decreased body weight in STZ-induced diabetic rats is believed to be caused by dehydration, and by breakdown and catabolism of fats and proteins. Increased catabolic reactions upon administering STZ result in muscle wasting, and subsequently, body weight loss.
Compounds 81c, 81f, 82c, and 82d, synthesized as described in Examples 1, 2, 5, and 6 were orally administrated to the treated groups of diabetic rats at a dose of 1.0 μM/kg. Fasting glucose levels in treated and control rat blood were followed over 8.0 hours. […] Compounds 82c and 82d were also tested in vivo (FIGS. 1C, 1D). […] In FIGS. 1A-1D the results are means±SEM, where n=6 rats; *P<0.05, **P<0.01, and ***P<0.001 vs. the STZ diabetic control group.

[3] = tested on: βTC6 cells; experiment: Glucose uptake assay (2-NBDG) in βTC6 cells; assay type: cell-based, murine; details: 10 μM sample, 450 μM 2-NBDG, ten minutes
Experimental: The glucose uptake assay was performed with a cell-based assay kit by incubating 450 μM 2-[N-(7-nitrobenz-2-oxa-1,3-diaxol-4-yl)amino]-2-deoxyglucose (2-NBDG, a fluorescently labelled deoxyglucose analog) and a 10 μM sample of the reference drug or the test compound with βTC6 cells for ten minutes and subsequently measuring the fluorescence at excitation and emission wavelengths of 485 nm and 535 nm, respectively, with a TECAN infinite M200 micro plate reader.

[4] = oral, 1.0 μM/kg, STZ diabetic rats

Compound | glucose-stimulated insulin release compared to basal controls (summary statement) [1] | fasting blood glucose levels in diabetic rat models (summary statement) [2] | effect on blood glucose levels (not statistically significant) ([2]; oral, 1.0 μM/kg, followed over 8.0 hours, STZ diabetic rats) | melting point | insulin secretion compared to the basal control [1] | insulin secretion compared to basal insulin secretion and to insulin secretion in the presence of glucose [1] | insulin secretion effect relative to exenatide ([1]; βTC6 cell line) | glucose uptake compared to the standard reference exenatide [3] | anti-diabetic potency ranking ([2]; in vivo and in vitro results taken together) | reduction in blood glucose level compared to control diabetic groups [2, 4] | potency in reducing the blood glucose level ([2]; oral, 1.0 μM/kg, at 8 hours, STZ diabetic rats)
Clc1cc(N2CCOCC2)ncn1 [Compound 82d, 4-(6′-Chloropyrimidin-4′-yl)morpholine] | increase glucose-stimulated insulin release | decrease fasting blood glucose levels | reduced blood glucose levels | – | – | – | – | – | – | – | –
CN(CCO)c1ccnc(Cl)n1 [Compound 81c, 2-[(2′-Chloropyrimidin-4′-yl)-methylamino]ethanol] | increase glucose-stimulated insulin release | decrease fasting blood glucose levels | – | 136 °C | significantly stimulated insulin secretions | stimulated insulin secretion significantly | comparable effects to exenatide | remarkable potential to flush glucose into the βTC6 cells | most potent anti-diabetic compound | significant reduction in blood glucose level | high potency in reducing the blood glucose level
CN(CCO)c1cc(Cl)ncn1 [Compound 82c, 2-[(6′-Chloropyrimidin-4′-yl)(methylamino)]ethanol] | increase glucose-stimulated insulin release | decrease fasting blood glucose levels | – | – | significantly stimulated insulin secretions | stimulated insulin secretion significantly | – | remarkable potential to flush glucose into the βTC6 cells | – | statistically significant reduction in blood glucose level | –
OCCNc1ccnc(Cl)n1 [Compound 81f, 2-[(2′-Chloropyrimidin-4′-yl)amino]ethanol] | increase glucose-stimulated insulin release | decrease fasting blood glucose levels | – | 116 to 117 °C | significantly stimulated insulin secretions | stimulated insulin secretion significantly | – | remarkable potential to flush glucose into the βTC6 cells | – | significant reduction in blood glucose level | –

Source: US10702525B1, “Pyrimidine derivatives as anti-diabetic agents” (UNITED ARAB EMIRATES UNIVERSITY, priority 2019, dated 2020)
